From the NIST ThermoML archive (doi:10.1016/j.jct.2017.07.008)
Several values for one entry are separate records, joined by “and”; a condition that tells them apart may be missing. Equal entries are not always repeated. Numbers after ± are expanded uncertainties.

Settings: for mass density / viscosity / speed of sound / vapor or sublimation pressure: Liquid; for mass density: Vibrating tube method; for surface tension liquid-gas: Drop volume; for viscosity: Capillary tube (Ostwald / Ubbelohde) method; for speed of sound: Frequency=3 MHz, Single path-length method; for vapor or sublimation pressure: Ebulliometric method (Recirculating still)

Compound: OCc1cccs1 [2-thiophenemethanol]
- mass density (313.15 K, 55000 kPa): 1216.51 ± 0.8 kg/m3
- mass density (313.15 K, 60000 kPa): 1218.68 ± 0.83 kg/m3
- mass density (313.15 K, 65000 kPa): 1220.8 ± 0.87 kg/m3
- surface tension liquid-gas (315.65 K): 41.73 ± 0.29 mN/m
- viscosity (315.65 K, 100 kPa): 4.147 ± 0.048 mPa·s
- speed of sound (315.65 K, 100 kPa): 1450.4 ± 0.78 m/s
- mass density (315.65 K, 100 kPa): 1186.63 ± 0.53 kg/m3
- surface tension liquid-gas (318.15 K): 41.48 ± 0.29 mN/m
- viscosity (318.15 K, 100 kPa): 3.87 ± 0.045 mPa·s
- speed of sound (318.15 K, 100 kPa): 1443.2 ± 0.78 m/s
- mass density (318.15 K, 100 kPa): 1184.39 ± 0.53 kg/m3
- mass density (318.15 K, 2000 kPa): 1185.52 ± 0.54 kg/m3
- mass density (318.15 K, 5000 kPa): 1187.27 ± 0.55 kg/m3
- mass density (318.15 K, 7000 kPa): 1188.42 ± 0.55 kg/m3
- mass density (318.15 K, 10000 kPa): 1190.12 ± 0.56 kg/m3
- mass density (318.15 K, 15000 kPa): 1192.88 ± 0.58 kg/m3
- mass density (318.15 K, 20000 kPa): 1195.57 ± 0.6 kg/m3
- mass density (318.15 K, 25000 kPa): 1198.18 ± 0.62 kg/m3
- mass density (318.15 K, 30000 kPa): 1200.72 ± 0.64 kg/m3
- mass density (318.15 K, 35000 kPa): 1203.2 ± 0.67 kg/m3
- mass density (318.15 K, 40000 kPa): 1205.62 ± 0.7 kg/m3
- mass density (318.15 K, 45000 kPa): 1207.98 ± 0.73 kg/m3
- mass density (318.15 K, 50000 kPa): 1210.29 ± 0.76 kg/m3
- mass density (318.15 K, 55000 kPa): 1212.54 ± 0.79 kg/m3
- mass density (318.15 K, 60000 kPa): 1214.74 ± 0.82 kg/m3
- mass density (318.15 K, 65000 kPa): 1216.9 ± 0.86 kg/m3
- surface tension liquid-gas (320.65 K): 41.22 ± 0.29 mN/m
- viscosity (320.65 K, 100 kPa): 3.615 ± 0.042 mPa·s
- speed of sound (320.65 K, 100 kPa): 1436 ± 0.78 m/s
- mass density (320.65 K, 100 kPa): 1182.14 ± 0.53 kg/m3
- surface tension liquid-gas (323.15 K): 40.95 ± 0.29 mN/m
- viscosity (323.15 K, 100 kPa): 3.355 ± 0.039 mPa·s
- speed of sound (323.15 K, 100 kPa): 1428.8 ± 0.78 m/s
- mass density (323.15 K, 100 kPa): 1179.88 ± 0.53 kg/m3
- mass density (323.15 K, 2000 kPa): 1181.03 ± 0.54 kg/m3
- mass density (323.15 K, 5000 kPa): 1182.82 ± 0.54 kg/m3
- mass density (323.15 K, 7000 kPa): 1183.99 ± 0.55 kg/m3
- mass density (323.15 K, 10000 kPa): 1185.73 ± 0.56 kg/m3
- mass density (323.15 K, 15000 kPa): 1188.55 ± 0.58 kg/m3
- mass density (323.15 K, 20000 kPa): 1191.29 ± 0.6 kg/m3
- mass density (323.15 K, 25000 kPa): 1193.95 ± 0.62 kg/m3
- mass density (323.15 K, 30000 kPa): 1196.55 ± 0.64 kg/m3
- mass density (323.15 K, 35000 kPa): 1199.07 ± 0.66 kg/m3
- mass density (323.15 K, 40000 kPa): 1201.53 ± 0.69 kg/m3
- mass density (323.15 K, 45000 kPa): 1203.93 ± 0.72 kg/m3
- mass density (323.15 K, 50000 kPa): 1206.28 ± 0.75 kg/m3
- mass density (323.15 K, 55000 kPa): 1208.56 ± 0.78 kg/m3
- mass density (323.15 K, 60000 kPa): 1210.8 ± 0.82 kg/m3
- mass density (323.15 K, 65000 kPa): 1212.99 ± 0.85 kg/m3
- surface tension liquid-gas (325.65 K): 40.67 ± 0.29 mN/m
- viscosity (325.65 K, 100 kPa): 3.17 ± 0.037 mPa·s
- speed of sound (325.65 K, 100 kPa): 1421.6 ± 0.78 m/s
- mass density (325.65 K, 100 kPa): 1177.63 ± 0.53 kg/m3
- surface tension liquid-gas (328.15 K): 40.4 ± 0.29 mN/m
- viscosity (328.15 K, 100 kPa): 2.957 ± 0.034 mPa·s
- speed of sound (328.15 K, 100 kPa): 1414.5 ± 0.78 m/s
- mass density (328.15 K, 100 kPa): 1175.35 ± 0.53 kg/m3 and 1175.36 ± 0.53 kg/m3
- mass density (328.15 K, 2000 kPa): 1176.53 ± 0.54 kg/m3
- mass density (328.15 K, 5000 kPa): 1178.35 ± 0.54 kg/m3
- mass density (328.15 K, 7000 kPa): 1179.55 ± 0.55 kg/m3
- mass density (328.15 K, 10000 kPa): 1181.33 ± 0.56 kg/m3
- mass density (328.15 K, 15000 kPa): 1184.21 ± 0.57 kg/m3
- mass density (328.15 K, 20000 kPa): 1187 ± 0.59 kg/m3
- mass density (328.15 K, 25000 kPa): 1189.72 ± 0.61 kg/m3
- mass density (328.15 K, 30000 kPa): 1192.36 ± 0.64 kg/m3
- mass density (328.15 K, 35000 kPa): 1194.93 ± 0.66 kg/m3
- mass density (328.15 K, 40000 kPa): 1197.44 ± 0.69 kg/m3
- mass density (328.15 K, 45000 kPa): 1199.88 ± 0.71 kg/m3
- mass density (328.15 K, 50000 kPa): 1202.26 ± 0.74 kg/m3
- mass density (328.15 K, 55000 kPa): 1204.58 ± 0.78 kg/m3
- mass density (328.15 K, 60000 kPa): 1206.86 ± 0.81 kg/m3
- mass density (328.15 K, 65000 kPa): 1209.08 ± 0.84 kg/m3
- surface tension liquid-gas (330.65 K): 40.1 ± 0.29 mN/m
- viscosity (330.65 K, 100 kPa): 2.785 ± 0.032 mPa·s
- speed of sound (330.65 K, 100 kPa): 1407.3 ± 0.78 m/s
- mass density (330.65 K, 100 kPa): 1173.09 ± 0.53 kg/m3
- surface tension liquid-gas (333.15 K): 39.8 ± 0.29 mN/m
- viscosity (333.15 K, 100 kPa): 2.628 ± 0.031 mPa·s
- speed of sound (333.15 K, 100 kPa): 1400.1 ± 0.78 m/s
- mass density (333.15 K, 100 kPa): 1170.8 ± 0.53 kg/m3 and 1170.82 ± 0.53 kg/m3
- mass density (333.15 K, 2000 kPa): 1172 ± 0.54 kg/m3
- mass density (333.15 K, 5000 kPa): 1173.87 ± 0.54 kg/m3
- mass density (333.15 K, 7000 kPa): 1175.1 ± 0.55 kg/m3
- mass density (333.15 K, 10000 kPa): 1176.91 ± 0.56 kg/m3
- mass density (333.15 K, 15000 kPa): 1179.85 ± 0.57 kg/m3
- mass density (333.15 K, 20000 kPa): 1182.7 ± 0.59 kg/m3
- mass density (333.15 K, 25000 kPa): 1185.47 ± 0.61 kg/m3
- mass density (333.15 K, 30000 kPa): 1188.16 ± 0.63 kg/m3
- mass density (333.15 K, 35000 kPa): 1190.78 ± 0.66 kg/m3
- mass density (333.15 K, 40000 kPa): 1193.33 ± 0.68 kg/m3
- mass density (333.15 K, 45000 kPa): 1195.82 ± 0.71 kg/m3
- mass density (333.15 K, 50000 kPa): 1198.24 ± 0.74 kg/m3
- mass density (333.15 K, 55000 kPa): 1200.6 ± 0.77 kg/m3
- mass density (333.15 K, 60000 kPa): 1202.91 ± 0.8 kg/m3
- mass density (333.15 K, 65000 kPa): 1205.17 ± 0.83 kg/m3
- surface tension liquid-gas (335.65 K): 39.51 ± 0.29 mN/m
- viscosity (335.65 K, 100 kPa): 2.486 ± 0.029 mPa·s
- speed of sound (335.65 K, 100 kPa): 1392.9 ± 0.78 m/s
- mass density (335.65 K, 100 kPa): 1168.53 ± 0.53 kg/m3
- surface tension liquid-gas (338.15 K): 39.24 ± 0.29 mN/m
- viscosity (338.15 K, 100 kPa): 2.372 ± 0.028 mPa·s
- speed of sound (338.15 K, 100 kPa): 1385.8 ± 0.78 m/s
- mass density (338.15 K, 100 kPa): 1166.23 ± 0.53 kg/m3 and 1166.25 ± 0.53 kg/m3
- mass density (338.15 K, 2000 kPa): 1167.46 ± 0.53 kg/m3
- mass density (338.15 K, 5000 kPa): 1169.37 ± 0.54 kg/m3
- mass density (338.15 K, 7000 kPa): 1170.63 ± 0.55 kg/m3
- mass density (338.15 K, 10000 kPa): 1172.48 ± 0.55 kg/m3
- mass density (338.15 K, 15000 kPa): 1175.48 ± 0.57 kg/m3
- mass density (338.15 K, 20000 kPa): 1178.39 ± 0.59 kg/m3
- mass density (338.15 K, 25000 kPa): 1181.22 ± 0.61 kg/m3
- mass density (338.15 K, 30000 kPa): 1183.96 ± 0.63 kg/m3
- mass density (338.15 K, 35000 kPa): 1186.63 ± 0.65 kg/m3
- mass density (338.15 K, 40000 kPa): 1189.22 ± 0.68 kg/m3
- mass density (338.15 K, 45000 kPa): 1191.75 ± 0.7 kg/m3
- mass density (338.15 K, 50000 kPa): 1194.21 ± 0.73 kg/m3
- mass density (338.15 K, 55000 kPa): 1196.62 ± 0.76 kg/m3
- mass density (338.15 K, 60000 kPa): 1198.96 ± 0.79 kg/m3
- mass density (338.15 K, 65000 kPa): 1201.25 ± 0.82 kg/m3
- vapor or sublimation pressure (351.15 K): 0.545 ± 0.1 kPa
- vapor or sublimation pressure (354.25 K): 0.665 ± 0.1 kPa
- vapor or sublimation pressure (357.17 K): 0.785 ± 0.1 kPa
- vapor or sublimation pressure (361.3 K): 1.025 ± 0.1 kPa
- vapor or sublimation pressure (365.19 K): 1.275 ± 0.1 kPa
- vapor or sublimation pressure (366.38 K): 1.355 ± 0.1 kPa
- vapor or sublimation pressure (367.49 K): 1.415 ± 0.1 kPa
- vapor or sublimation pressure (368.14 K): 1.475 ± 0.1 kPa
- vapor or sublimation pressure (369.77 K): 1.61 ± 0.1 kPa
- vapor or sublimation pressure (372.56 K): 1.88 ± 0.1 kPa
- vapor or sublimation pressure (373.21 K): 1.96 ± 0.1 kPa
- vapor or sublimation pressure (377.74 K): 2.44 ± 0.1 kPa
- vapor or sublimation pressure (382.13 K): 3.06 ± 0.1 kPa
- vapor or sublimation pressure (386.07 K): 3.675 ± 0.1 kPa
- vapor or sublimation pressure (387.56 K): 3.93 ± 0.1 kPa
- vapor or sublimation pressure (388.56 K): 4.15 ± 0.1 kPa
- vapor or sublimation pressure (391.84 K): 4.77 ± 0.1 kPa
- vapor or sublimation pressure (393.87 K): 5.25 ± 0.1 kPa
- vapor or sublimation pressure (397.94 K): 6.25 ± 0.1 kPa
- vapor or sublimation pressure (399.72 K): 6.8 ± 0.1 kPa
- vapor or sublimation pressure (402.41 K): 7.6 ± 0.1 kPa
- vapor or sublimation pressure (404.37 K): 8.25 ± 0.1 kPa
- vapor or sublimation pressure (406.56 K): 9 ± 0.1 kPa
- vapor or sublimation pressure (408.27 K): 9.665 ± 0.1 kPa
- vapor or sublimation pressure (411.5 K): 10.96 ± 0.1 kPa
- vapor or sublimation pressure (415.06 K): 12.6 ± 0.1 kPa
- vapor or sublimation pressure (416.56 K): 13.38 ± 0.1 kPa
- vapor or sublimation pressure (418.63 K): 14.47 ± 0.1 kPa
- vapor or sublimation pressure (420.23 K): 15.36 ± 0.1 kPa
- vapor or sublimation pressure (422.21 K): 16.51 ± 0.1 kPa
- vapor or sublimation pressure (424.64 K): 18.05 ± 0.1 kPa
- vapor or sublimation pressure (426.07 K): 19 ± 0.1 kPa
- vapor or sublimation pressure (428.27 K): 20.52 ± 0.1 kPa
- vapor or sublimation pressure (429.37 K): 21.34 ± 0.11 kPa
- vapor or sublimation pressure (431.17 K): 22.77 ± 0.11 kPa
- vapor or sublimation pressure (432.56 K): 23.88 ± 0.11 kPa
- vapor or sublimation pressure (433.65 K): 24.78 ± 0.11 kPa
